According to the NIST ThermoML archive (doi:10.1016/j.jct.2014.09.011):

Assay: mn = molality of the nth substance listed, in mol/kg
Conditions: 101.3 kPa, Liquid; for speed of sound: Frequency=2 MHz, Linear variable-path acoustic interferometer; for mass density: Pycnometric method

O=C(O)[C@]1(O)C[C@@H](O)[C@@H](O)[C@H](O)C1 + O
Conditions	mass density [kg/m3]	speed of sound [m/s]
278.15 K, m1 = 0.01	1000.73	1427.1
278.15 K, m1 = 0.0198	1001.5	1428.1
278.15 K, m1 = 0.0299	1002.27	1429.2
278.15 K, m1 = 0.0374	1002.84	1429.9
278.15 K, m1 = 0.0405	1003.09	1430.2
278.15 K, m1 = 0.0441	1003.35	1430.6
278.15 K, m1 = 0.0492	1003.74	1431
278.15 K, m1 = 0.0601	1004.55	1432.1
278.15 K, m1 = 0.0634	1004.82	1432.4
278.15 K, m1 = 0.072	1005.45	1433.3
278.15 K, m1 = 0.0815	1006.18	1434.3
278.15 K, m1 = 0.0892	1006.75	1435
278.15 K, m1 = 0.1001	1007.56	1436.1
288.15 K, m1 = 0.0096	999.82	1466.7
288.15 K, m1 = 0.0238	1000.89	1467.9
288.15 K, m1 = 0.0297	1001.32	1468.4
288.15 K, m1 = 0.0362	1001.8	1468.9
288.15 K, m1 = 0.0403	1002.1	1469.3
288.15 K, m1 = 0.0447	1002.43	1469.6
288.15 K, m1 = 0.0489	1002.74	1470
288.15 K, m1 = 0.0542	1003.11	1470.4
288.15 K, m1 = 0.061	1003.63	1471
288.15 K, m1 = 0.0683	1004.16	1471.6
288.15 K, m1 = 0.0795	1004.98	1472.5
288.15 K, m1 = 0.0869	1005.52	1473.1
288.15 K, m1 = 0.0992	1006.4	1474.2
298.15 K, m1 = 0.0096	997.74	1497.4
298.15 K, m1 = 0.0199	998.49	1498.3
298.15 K, m1 = 0.0254	998.89	1498.7
298.15 K, m1 = 0.0304	999.25	1499.1
298.15 K, m1 = 0.0385	999.83	1499.7
298.15 K, m1 = 0.0415	1000.05	1500
298.15 K, m1 = 0.0493	1000.6	1500.6
298.15 K, m1 = 0.0542	1000.95	1501
298.15 K, m1 = 0.061	1001.46	1501.5
298.15 K, m1 = 0.0716	1002.18	1502.4
298.15 K, m1 = 0.0786	1002.68	1502.9
298.15 K, m1 = 0.0869	1003.27	1503.6
298.15 K, m1 = 0.1007	1004.22	1504.7

Cl.N=C(N)N [guanidine hydrochloride] + O
Conditions	mass density [kg/m3]	speed of sound [m/s]
278.15 K, m1 = 0.0101	1000.29	1427
278.15 K, m1 = 0.0162	1000.5	1427.5
278.15 K, m1 = 0.0196	1000.61	1427.8
278.15 K, m1 = 0.0227	1000.7	1428
278.15 K, m1 = 0.0291	1000.91	1428.5
278.15 K, m1 = 0.039	1001.25	1429.3
278.15 K, m1 = 0.0501	1001.58	1430.3
278.15 K, m1 = 0.0586	1001.85	1431
278.15 K, m1 = 0.0619	1001.96	1431.2
278.15 K, m1 = 0.0685	1002.17	1431.8
278.15 K, m1 = 0.0807	1002.54	1432.8
278.15 K, m1 = 0.0882	1002.78	1433.4
278.15 K, m1 = 0.0981	1003.08	1434.2
288.15 K, m1 = 0.0102	999.41	1466.6
288.15 K, m1 = 0.0201	999.7	1467.3
288.15 K, m1 = 0.0267	999.9	1467.8
288.15 K, m1 = 0.0297	999.98	1468
288.15 K, m1 = 0.0387	1000.25	1468.6
288.15 K, m1 = 0.0437	1000.41	1469
288.15 K, m1 = 0.0502	1000.59	1469.4
288.15 K, m1 = 0.0598	1000.86	1470.1
288.15 K, m1 = 0.0634	1000.97	1470.4
288.15 K, m1 = 0.0697	1001.15	1470.8
288.15 K, m1 = 0.0798	1001.43	1471.5
288.15 K, m1 = 0.0926	1001.79	1472.4
288.15 K, m1 = 0.1009	1002.03	1473
298.15 K, m1 = 0.0101	997.34	1497.4
298.15 K, m1 = 0.0162	997.52	1497.8
298.15 K, m1 = 0.0196	997.61	1497.9
298.15 K, m1 = 0.0267	997.81	1498.4
298.15 K, m1 = 0.0299	997.9	1498.6
298.15 K, m1 = 0.0349	998.05	1498.9
298.15 K, m1 = 0.0401	998.17	1499.2
298.15 K, m1 = 0.0515	998.5	1499.9
298.15 K, m1 = 0.0586	998.7	1500.4
298.15 K, m1 = 0.0705	999.01	1501.2
298.15 K, m1 = 0.0807	999.29	1501.8
298.15 K, m1 = 0.0926	999.61	1502.5
298.15 K, m1 = 0.1009	999.84	1503

C=C[C@H]1CN2CC[C@H]1C[C@H]2[C@H](O)c1ccnc2ccc(OC)cc12.Cl [quinine hydrochloride] + O
Conditions	mass density [kg/m3]	speed of sound [m/s]
278.15 K, m1 = 0.0127	1001.09	1429.3
278.15 K, m1 = 0.0177	1001.51	1430.5
278.15 K, m1 = 0.0225	1001.92	1431.7
278.15 K, m1 = 0.0287	1002.46	1433.3
278.15 K, m1 = 0.0332	1002.86	1434.4
278.15 K, m1 = 0.0402	1003.44	1436.2
278.15 K, m1 = 0.048	1004.11	1438.1
278.15 K, m1 = 0.0603	1005.15	1441.1
278.15 K, m1 = 0.0653	1005.57	1442.4
278.15 K, m1 = 0.0698	1005.93	1443.5
278.15 K, m1 = 0.0798	1006.76	1446
278.15 K, m1 = 0.09	1007.59	1448.5
278.15 K, m1 = 0.0987	1008.29	1450.7
288.15 K, m1 = 0.0106	1000.01	1468.3
288.15 K, m1 = 0.0163	1000.5	1469.6
288.15 K, m1 = 0.022	1000.99	1470.9
288.15 K, m1 = 0.0294	1001.64	1472.5
288.15 K, m1 = 0.0361	1002.19	1474
288.15 K, m1 = 0.0396	1002.48	1474.8
288.15 K, m1 = 0.0491	1003.28	1477
288.15 K, m1 = 0.0552	1003.79	1478.3
288.15 K, m1 = 0.0598	1004.17	1479.3
288.15 K, m1 = 0.0687	1004.9	1481.4
288.15 K, m1 = 0.0785	1005.7	1483.6
288.15 K, m1 = 0.0881	1006.49	1485.7
288.15 K, m1 = 0.1019	1007.59	1488.8
298.15 K, m1 = 0.0109	997.96	1499.2
298.15 K, m1 = 0.0125	998.1	1499.4
298.15 K, m1 = 0.0199	998.7	1501.1
298.15 K, m1 = 0.0248	999.09	1502.2
298.15 K, m1 = 0.0286	999.45	1502.9
298.15 K, m1 = 0.0378	1000.17	1504.9
298.15 K, m1 = 0.0473	1000.94	1506.9
298.15 K, m1 = 0.0544	1001.52	1508.5
298.15 K, m1 = 0.0594	1001.93	1509.4
298.15 K, m1 = 0.0677	1002.6	1511.4
298.15 K, m1 = 0.0785	1003.46	1513.7
298.15 K, m1 = 0.0881	1004.22	1515.8
298.15 K, m1 = 0.0987	1005.05	1518.1

O [water] + C=C[C@H]1CN2CC[C@H]1C[C@H]2[C@H](O)c1ccnc2ccc(OC)cc12.Cl
278.15 K, m2 = 0
Conditions	mass density [kg/m3]	speed of sound [m/s]
–	999.96	1426.2

O [water] + Cl.N=C(N)N
278.15 K, m2 = 0
Conditions	mass density [kg/m3]	speed of sound [m/s]
–	999.96	1426.2

O [water] + O=C(O)[C@]1(O)C[C@@H](O)[C@@H](O)[C@H](O)C1
278.15 K, m2 = 0
Conditions	mass density [kg/m3]	speed of sound [m/s]
–	999.96	1426.2
